The text below walks through data of patent US6548041B1, “Dopamine transporter imaging agents” (Organix, Inc., priority 1999, dated 2003).

Where only a bound is given, the exact number is not on record here.

Broadly, the IC50 is the midpoint of a concentration-inhibition curve.

One series has as its target SERT (Homo sapiens, UniProt P31645). Briefly: Binding affinity for SERT (selectivity test).
Series [1] has as its target dopamine transporter (DAT). Briefly: Binding affinity for the dopamine transporter. The following applies: for DAT/SERT: selectivity ratio from the IC50 values for DAT and SERT.
For series [2], the target named is T1, DAT sites in striatum (Macaca mulatta, UniProt Q7JHP9).
T1 construct: from tissue; host or cells: brain (striatum) of living rhesus monkeys, imaged in vivo
Briefly: SPECT imaging of monkey brain with 99mTc labeled tracers. The class given is in vivo, Rhesus monkeys. The following applies: for accumulation of radioactivity in striatum vs other areas of the brain (SPECT images): images acquired between 30 and 50 minutes after injection. On the procedure: (§1) All SPECT images were acquired with a MultiSPECT 2 gamma camera (Siemens, Hoffman Estates, Ill.) equipped with fan-beam collimators and peaked to the 140 KeV photopeak of ^99mTc (15% window). This camera has intrinsic resolution of 4.6 mm (FWHM), and a sensitivity of ˜240 cps/mCi. Images were acquired over 360° (60 projections/head, 128×128 matrix) in the continuous mode. Image reconstruction was performed using a conventional filtered back-projection algorithm to an in-plane resolution of 10 mm FWHM and attenuation correction via the Chang method.
(§2) Rhesus monkeys weighing approximately 7 kg were anesthetized with ketamine/xylazine (15.0 and 1.5 mg/kg) and positioned prone on the imaging bed of the SPECT camera. Before the start of imaging, a venous catheter was inserted in a peripheral vein for radiopharmaceutical administration. The heads of the animals were immobilized with a custom fabricated head holder. Approximately 20-25 mCi of ^99mTc labeled O-1505T, O-1508T, O-1561T or O-1560T was injected intravenously over 60 seconds. Dynamic SPECT imaging was initiated at the end of the infusion and consisted of 2 min. acquisitions during the first hour and 5 min. acquisitions thereafter.
(§3) SPECT slices with greatest striatal activity or in which the occipital cortex was well visualized were summed and regions of interest (ROI's) were constructed. In the striatal planes, ROI's were placed on the right and left striatum (caudate+putamen). Radioactivity in the right and left striatum were averaged. ROI radioactivities (cpm/cc) were decay corrected to the time of injection. The difference between striatal and occipital cortex activity (specific binding) was calculated for each image and was plotted as a function of time. Corrections for scattered fraction and partial volume effects were not performed.

Series [3] is described as follows: Biodistribution and radiation dosimetry (MIRdose). The class given is in vivo, Sprague-Dawley rats. The note with it: rat, 5 min to 24 hrs after injection. The protocol: Groups of male Sprague-Dawley rats were in injected with ˜10 mCi of ^99mTc labeled O-1505T and O-1561T. At time intervals between 5 min. and 24 hrs after injection, groups of 6 animals injected with each radiopharmaceutical were sacrificed and biodistribution was measured. Samples of blood, heart, lung, liver, spleen, kidney, adrenal, stomach, GI tract, testes, bone, bone marrow and skeletal muscle were weighed and radioactivity was measured with a well type gamma counter (LKB model #1282, Wallac Oy, Finland). To correct for radioactive decay and permit calculation of the concentration of radioactivity in each organ as a fraction of the administered dose, aliquots of the injected doses were counted simultaneously. The results were expressed as percent injected dose per gram (%I.D./g) and radiation dosimetry was estimated by the MIRdose method.

In series [4] the test system is DAT sites in striatum. In words: SPECT imaging of monkey brain with 99mTc labeled tracers. The following applies: SPECT images. The class given is in vivo, Rhesus monkeys. The protocol: as §1, §2, §3

T1 sequence (Q7JHP9 1-620): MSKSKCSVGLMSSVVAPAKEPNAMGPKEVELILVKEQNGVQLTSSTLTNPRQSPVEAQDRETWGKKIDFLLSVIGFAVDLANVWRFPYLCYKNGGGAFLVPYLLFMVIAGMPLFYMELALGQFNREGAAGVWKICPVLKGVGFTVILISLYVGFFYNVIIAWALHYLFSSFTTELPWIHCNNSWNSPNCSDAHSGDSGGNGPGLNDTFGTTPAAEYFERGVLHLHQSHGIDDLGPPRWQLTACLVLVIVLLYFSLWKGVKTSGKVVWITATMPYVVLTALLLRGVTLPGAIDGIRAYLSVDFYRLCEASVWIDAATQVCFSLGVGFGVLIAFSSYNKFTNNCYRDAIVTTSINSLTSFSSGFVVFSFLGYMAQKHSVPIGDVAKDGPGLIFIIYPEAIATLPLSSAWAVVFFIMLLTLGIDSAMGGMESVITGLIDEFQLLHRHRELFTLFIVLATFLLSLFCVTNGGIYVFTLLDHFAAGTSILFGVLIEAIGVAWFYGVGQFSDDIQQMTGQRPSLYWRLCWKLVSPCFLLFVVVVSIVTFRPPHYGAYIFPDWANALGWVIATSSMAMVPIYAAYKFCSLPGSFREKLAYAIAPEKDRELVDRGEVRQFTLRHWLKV
Chain of SERT (P31645 whole entry, species assumed): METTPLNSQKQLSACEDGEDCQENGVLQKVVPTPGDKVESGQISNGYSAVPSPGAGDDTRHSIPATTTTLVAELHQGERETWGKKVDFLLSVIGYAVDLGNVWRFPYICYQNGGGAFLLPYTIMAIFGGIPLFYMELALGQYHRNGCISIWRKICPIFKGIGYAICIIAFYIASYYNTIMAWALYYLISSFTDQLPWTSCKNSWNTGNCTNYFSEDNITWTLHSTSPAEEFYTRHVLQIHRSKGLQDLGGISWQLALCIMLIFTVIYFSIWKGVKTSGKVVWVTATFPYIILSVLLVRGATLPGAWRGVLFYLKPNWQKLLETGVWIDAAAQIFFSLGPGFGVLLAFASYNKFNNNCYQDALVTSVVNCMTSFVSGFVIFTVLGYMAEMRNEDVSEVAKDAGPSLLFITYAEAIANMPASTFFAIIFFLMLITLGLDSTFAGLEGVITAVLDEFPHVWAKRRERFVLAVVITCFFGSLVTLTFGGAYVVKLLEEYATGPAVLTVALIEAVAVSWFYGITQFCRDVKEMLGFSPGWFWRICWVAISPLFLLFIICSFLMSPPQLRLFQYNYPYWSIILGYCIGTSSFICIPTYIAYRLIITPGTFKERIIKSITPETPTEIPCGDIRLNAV

On SERT, `COC(=O)C1C(c2ccc(Cl)c(Cl)c2)CC2CCC1N2CCC[N+]12CC[S][Re-]13(=[O])[S]CC[N]3C(=O)C2` (stereo not drawn) [Compound O-1196, N-[(2-((3′-N′-Propyl-(1″R)-3″α-(3,4-dichlorophenyl)-2″β-methoxy-carbonyltropane)(2-mercaptoethyl)amino)acetyl)-2-aminoethanethiolato]rhenium (V) Oxide] registered an IC50 of 640 nM. In addition, in series [1], the IC50 came out at 10 nM and the DAT/SERT worked out at 64.

Turning to `CCC(=O)C1C(c2ccc(Cl)c(Cl)c2)CC2CCC1N2CCCN1CC[S][99Tc]2(=[O])[S]CC[N]2C(=O)C1` (stereo not drawn) [Compound O-1560T, N-[(2-((3′-N′-Propyl-(1″R)-2″β-1-propanoyl-3″β-(3,4-dichlorophenyl)-tropane)(2-mercaptoethyl)amino)acetyl)-2-aminoethanethiolato]-technetium (V) Oxide], the “accumulation of radioactivity in striatum vs other areas of the brain (SPECT images)” value on DAT sites in striatum [2] was “results more like O-1505T and O-1561T”.

In the case of `CCC(=O)C1C(c2ccc(F)cc2)CC2CCC1N2CCCN1CC[S][99Tc]2(=[O])[S]CC[N]2C(=O)C1` (stereo not drawn) [Compound O-1508T, N-[(2-((3′-N′-Propyl-(1″R)-3″β-(4-fluorophenyl)tropane-2″β-1-propanoyl)-(2-mercaptoethyl)amino)acetyl)-2-aminoethanethiolato]technetium (V) Oxide], the “accumulation of radioactivity in striatum vs other areas of the brain (SPECT images)” value on DAT sites in striatum [2] is “failing to demonstrate significant accumulation of radioactivity in striatum or elsewhere in the brain”.

Compound `COC(=O)C1C(c2ccc(F)cc2)CC2CCC1N2CCC[N+]12CC[S][Re-]13(=[O])[S]CC[N]3C(=O)C2` (mixture of isomers) [Compound O-861] returned an IC50 on SERT of 80 nM. Moreover, in series [1], the IC50 was found to be 2.9 nM and the DAT/SERT is recorded as 28.

Take `CCC(=O)C1C(c2ccc(Cl)c(Cl)c2)CC2CCC1N2CCCN1CC[S][99Tc]2(=[O])[S]CC[N]2C(=O)C1` (stereo not drawn) [Compound O-1561T, N-[(2-((3′-N′-Propyl-(1″R)-2″β-1-propanoyl-3″α-(3,4-dichlorophenyl)-tropane)(2-mercaptoethyl)amino)acetyl)-2-aminoethanethiolato]-technetium (V) Oxide]: the “clearance from tissues (biodistribution)” value in series [3] was “cleared rapidly from all tissues of the rat”. Besides, the “accumulation in thalamus, hypothalamus or midbrain (regions rich in 5-HT transporters)” value with DAT sites in striatum [4] is given as “lack of accumulation”. Besides, the “time after injection to excellent contrast between striatum and the rest of the brain” value on DAT sites in striatum [2] (i.v., normal monkeys) was no more than 30 min. Also, the “accumulation of radioactivity in striatum vs other areas of the brain (SPECT images)” value on DAT sites in striatum [2] was “high concentrations of radiopharmaceutical in the striatum with minimal accumulation in other areas of the brain”. Also, at DAT sites in striatum [2] (region of interest analysis, SPECT images 30-50 minutes after i.v. injection of 20-25 mCi), the “striatal to occipital cortex ratio” value is roughly 2.5.

`CCC(=O)C1C(c2ccc(F)cc2)CC2CCC1N2CCC[N+]12CC[S][Re-]13(=[O])[S]CC[N]3C(=O)C2` (stereo not drawn) [Compound O-1505, N-[(2-((3′-N′-Propyl-(1″R)-3″α-(4-fluorophenyl)tropane-2″β-1′″-propanoyl)(2-mercaptoethyl)amino)acetyl)-2-aminoethane-thiolato]rhenium (V) Oxide] came in with an IC50 on SERT of 497 nM. Also, in series [1], the IC50 amounted to 2 nM and the DAT/SERT came out at 249.

`COC(=O)C1C(c2ccc3ccccc3c2)CC2CCC1N2CCC[N+]12CC[S][Re-]13(=[O])[S]CC[N]3C(=O)C2` (mixture of isomers) [Compound O-1339, N-[(2-((3′-N′-Propyl-(1″R)-2″β-methoxycarbonyl-3″β-(2-naphthyl)-tropane)(2-mercaptoethyl)amino)acetyl)-2-aminoethanethiolato]-rhenium (V) Oxide] displayed an IC50 at SERT of 59 nM. In series [1], the IC50 came out at 3.6 nM and the DAT/SERT turned out to be 16.

As for `COC(=O)C1=C(c2ccc(Cl)c(Cl)c2)CC2CCC1N2CCC[N+]12CC[S][Re-]13(=[O])[S]CC[N]3C(=O)C2` (centres unmarked) [Compound O-1136, N-[(2-((3′-N′-Propyl-(1″R)-3″-(3,4-dichlorophenyl)trop-2-ene-2″-methoxycarbonyl)(2-mercaptoethyl)amino)acetyl)-2-aminoethane-thiolato]rhenium (V) Oxide], the IC50 at SERT was 1690 nM. In series [1], the IC50 was 60 nM and the DAT/SERT came out at 28.

In series [1], `COC(=O)C1C(c2ccc(Cl)c(Cl)c2)CC2CCC1N2CCC[N+]12CC[S][Re-]13(=[O])[S]CC[N]3C(=O)C2` (mixture of isomers) [Compound O-863] displayed an IC50 of 40 nM.

With `COC(=O)C1=C(c2ccc3ccccc3c2)CC2CCC1N2CCC[N+]12CC[S][Re-]13(=[O])[S]CC[N]3C(=O)C2` (mixture of isomers) [Compound O-1185, N-[(2-((3′-N′-Propyl-(1″R)-2″-methoxycarbonyl-3″-(2-naphthyl)-trop-2-ene)(2-mercaptoethyl)amino)acetyl)-2-aminoethane-thiolato]-rhenium (V) Oxide], on SERT, the IC50 is 960 nM. Also, in series [1], the IC50 stood at 63 nM and the DAT/SERT is 15.

`CCC(=O)C1C(c2ccc(F)cc2)CC2CCC1N2CCCN1CC[S][Re]2(=[O])[S]CC[N]2C(=O)C1` (mixture of isomers) [Compound O-1508, N-[(2-((3′-N′-Propyl-(1″R)-3″β-(4-fluorophenyl)tropane-2″β-1-propanoyl)(2-mercaptoethyl)amino)acetyl)-2-aminoethane-thiolato]rhenium (V) oxide]: on SERT, the IC50 turned out to be 200 nM. In series [1], the IC50 came to 5.9 nM and the DAT/SERT was 34.

The compound `COC(=O)C1C(c2ccc(F)cc2)CC2CCC1N2CCCN1CC[S][Re]2(=[O])[S]CC[N]2C(=O)C1` (single isomer, unassigned) [Compound O-928] had an IC50 on SERT of 30 nM. In series [1], the IC50 amounted to 3 nM and the DAT/SERT came out at 10.

For `COC(=O)C1C(c2ccc(F)cc2)CC2CCC1N2CCCN1CC[S][Re]2(=[O])[S]CC[N]2C(=O)C1` (single isomer, unassigned) [Compound O-927], the IC50 at SERT amounted to 200 nM. For the same compound, in series [1], the IC50 stood at 5 nM and the DAT/SERT was 40.

On SERT, `COC(=O)C1C(c2ccc(F)cc2)CC2CCC1N2CCC[N+]12CC[S][Re-]13(=[O])[S]CC[N]3C(=O)C2` (centres unmarked) [Compound O-1186] displayed an IC50 of 1300 nM. Moreover, in series [1], the IC50 was determined as 3.8 nM and the DAT/SERT came to 340.

The compound `CON(C)C(=O)C1C(c2ccc(F)cc2)CC2CCC1N2CCC[N+]12CC[S][Re-]13(=[O])[S]CC[N]3C(=O)C2` (stereo not drawn) [Compound O-1451, N-[(2-((3′-N′-Propyl-(1″R)-3″α-(4-fluorophenyl)tropane-2″β-methoxymethylcarbamoyl)(2-mercaptoethyl)amino)acetyl)-2-aminoethanethiolato]rhenium (V) Oxide] came in with an IC50 at SERT of 3260 nM. Also, in series [1], the IC50 came out at 40 nM and the DAT/SERT was 80.

On to `CCC(=O)C1C(c2ccc(Cl)c(Cl)c2)CC2CCC1N2CCCN1CC[S][Re]2(=[O])[S]CC[N]2C(=O)C1` (mixture of isomers) [Compound O-1561, N-[(2-((3′-N′-Propyl-(1″R)-3″α-(3,4-dichlorophenyl)tropane-2″β-1′″-propanoyl)(2-mercaptoethyl)amino)acetyl)-2-aminoethane-thiolato]rhenium (V) Oxide], for which the IC50 turned out to be 337 nM on SERT and 5.3 nM in series [1]. The DAT/SERT in series [1] came out at 63.
